Data reported in US20170096504A1, “METHOD FOR PRODUCING FLUOROPOLYMER AQUEOUS DISPERSION LIQUID” (DAIKIN INDUSTRIES, LTD., priority 2014, published 2017).

Assays:
[1] = Critical micelle concentration by surface tension measurement; assay type: physicochemical
From the text: The critical micelle concentration may be determined by measuring the surface tension. The surface tension may be measured using a surface tensiometer CBVP-A3 (Kyowa Interface Science Co., Ltd.), for example.
The critical micelle concentration may be determined in accordance with “Environmental Science & Technology (2011)”, 45(19), 8120-8128 and the literature cited therein.

[2] = Log POW (1-octanol/water partition coefficient) by HPLC calibration
Protocol: Log POW is a 1-octanol/water partition coefficient which is represented by Log P (wherein P is the ratio between the concentration of the fluorosurfactant in octanol and that in water in a phase-separated octanol/water (1:1) liquid mixture containing the fluorosurfactant).
Log POW is determined as follows. Specifically, HPLC is performed on standard substances (heptanoic acid, octanoic acid, nonanoic acid, and decanoic acid) each having a known octanol/water partition coefficient using TOSOH ODS-120T (φ4.6 mm×250 mm) as a column and acetonitrile/0.6 mass % HClO4 aqueous solution (=1/1 (vol/vol %)) as an eluent at a flow rate of 1.0 ml/min, a sample amount of 300 μL, and a column temperature of 40° C.; with a detection light of UV 210 nm. For each standard substance, a calibration curve is drawn with respect to the elution time and the known octanol/water partition coefficient. Based on this calibration curve, Log POW is calculated from the elution time of the sample liquid in HPLC.

| Structure (SMILES) | critical micelle concentration [1] | chromatographic logP [2] |
| --- | --- | --- |
| N.O=C(O)C(F)(OC(F)(F)C(F)(F)C(F)(F)F)C(F)(F)F (centres unmarked) [C3F7OCF(CF3)COONH4] | 48 g/L | – |
| O=S(=O)(O)CCC(F)(F)C(F)(F)C(F)(F)C(F)(F)C(F)(F)C(F)(F)F [C6F13(CH2)2SO3H] | 1 g/L | – |
| N.O=C(O)C(F)(F)C(F)(F)C(F)(F)C(F)(F)F [CF3(CF2)3COONH4, ammonium perfluoropentanoate] | 82 g/L | 2 |
| N.O=C(O)C(F)(F)C(F)(F)C(F)(F)C(F)(F)C(F)(F)F [CF3(CF2)4COONH4, ammonium perfluorohexanoate] | 56 g/L | 2.4 |
| N.O=C(O)C(F)(OC(F)(F)C(F)(OC(F)(F)F)C(F)(F)F)C(F)(F)F (centres unmarked) [CF3OCF(CF3)CF2OCF(CF3)COONH4, ammonium 2,3,3,3-tetrafluoro-2-[1,1,2,3,3,3-hexafluoro-2-(trifluoromethoxy)propoxy]-propanoate] | 22 g/L | 3.4 |
